One series deals with HSV-1. Kind of series: microbe, parasite or virus in culture. In kind it is cell-based, human herpes 1.
The nature of series [1]: in vitro. The note with it: African green monkey (Cercopithecus aethiops).
In a further series the test system is YFV. Kind of series: microbe, parasite or virus in culture. In kind it is cell-based, yellow fever virus.
For series [2], the system named is WNV. In kind it is cell-based, west nile virus. The note with it: for Cell viability, addition at 1, 2, 4 or 8 hours post-infection: 15 μM for 4, 20 μM for 5.
The test system of series [3] is WNV. Kind of series: Adsorption assay. In kind it is cell-based, west nile virus. The conditions noted are these: BHK cells, m.o.i. 1, 0-60 min at 4°C; 15μM for 4, 20μM for 5.
Series [4] concerns WNV. Kind of series: Virucidal activity assay. In kind it is cell-based, west nile virus. The note with it: 45 min at 37°C, 6 and 20μM for 4, 20 and 50μM for 5.
The subject of series [5] is WNV. Kind of series: Yield reduction assay. In kind it is cell-based, west nile virus. The conditions noted are these: BHK-21, m.o.i. 0.1, 72 hrs, 15μM for 4, 20 μM for 5.
Series [6] concerns West Nile virus, Dengue virus and Yellow Fever virus. In kind it is cell-based, Flaviviridae. The conditions noted are these: read-out: EC50 range against West Nile virus, Dengue virus and Yellow Fever virus.
The subject of series [7] is WNV. Kind of series: microbe, parasite or virus in culture. In kind it is cell-based, west nile virus.
Series [8] has as its system human lung adenocarcinoma epithelial cell line A549. The conditions noted are these: previous studies; cited from earlier work.
Series [9] relates to M. tuberculosis H37Ra ATCC 25177. Kind of series: microbe, parasite or virus in culture. In kind it is cell-based, Mycobacterium tuberculosis.
A further series has as its system HIV-1 IIIB. Kind of series: microbe, parasite or virus in culture. In kind it is cell-based, Human Immunodeficiency Virus type-1.
The next series deals with DENV-2. Kind of series: microbe, parasite or virus in culture. In kind it is cell-based, dengue virus.
The next series has as its system Reo-1. Kind of series: microbe, parasite or virus in culture. In kind it is cell-based, reovirus type-1.
Series [10] concerns WNV. Kind of series: microbe, parasite or virus in culture. In kind it is cell-based, west nile virus. The source holds these as a separate data set.
Another series relates to BVDV. Kind of series: microbe, parasite or virus in culture. In kind it is cell-based, bovine viral diarrhoea virus. The conditions noted are these: read-out: EC50 BVDV.
Series [11] is described as follows: in vitro. The conditions noted are these: human.
Series [12] is described as follows: in vitro. The note with it: cattle (Bos taurus).
A short description of series [13]: in vitro. The note with it: hamster (Mesocricetus auratus).
Another series has as its system M. tuberculosis. The conditions noted are these: against M. tuberculosis; cited from earlier work.
Setting [14] is: Human alphaherpesvirus 1, Vero 76, read-out: EC50 HSV-1.
Where [15] appears, read: Yellow fever virus, BHK-21, read-out: EC50 YFV.
The mark [16] stands for this setting: Mycobacterium tuberculosis, 672 h.
[17] abbreviates: Human immunodeficiency virus 1, IIIB, MT4, read-out: EC50 HIV-1IIIB.
Where [18] appears, read: Reovirus sp., BHK-21, read-out: EC50 Reo-1.
[19] abbreviates: Bovine viral diarrhea virus isolates and strains, MDBK, in Bos taurus.

Converted amounts (≈) assume the structure as drawn. “Also recorded” adds a separate entry of the source. Read-outs that look alike come from different tables or passages of the source.

One may read the EC50 as the concentration at which the effect is half-maximal. For the compound `Nc1nc2c(ncn2COCCO)c(=O)[nH]1` [Acycloguanosine, reference compound], in the series on HSV-1 (setting [14]), the 50% effective concentration (EC50) is 3 µM. The compound also yielded a CC50 in “in vitro [1]” of more than 100 µM.

For the compound `CC1(C)O[C@H]1[C@H]1C[C@@H]([C@@H]2CC[C@]3(C)C4=CC[C@H]5C(C)(C)C(=O)CC[C@]5(C)[C@H]4CC[C@@]23C)[C@H](O)O1` [Compound 5, melianone], the EC50 with YFV (read-out: EC50 YFV) is 3 µM; in [6] it was 3 to 11 µM; in the series with WNV [7] (read-out: EC50 WNV), 11 µM; with HIV-1 IIIB (read-out: EC50 HIV-1IIIB) it was more than 100 µM; in the series with DENV-2 (read-out: EC50 DENV-2) it was 12 µM; in the series with Reo-1 (read-out: EC50 Reo-1) it was more than 50 µM. In addition, the half-maximal effective concentration (EC50) in the series on HSV-1 (read-out: EC50 HSV-1) is 20 µM; with WNV [10] (read-out: EC50 WNV 2hrs p.i.) it was more than 50 µM; in the series with WNV [10] (read-out: EC50 WNV d. i.), 6.1 µM; with BVDV, more than 16 µM. The “Cell viability, addition during the infection” value in the series on WNV [2] is listed as “increases the cell viability”. Further, the “Cell viability, pretreatment” value with WNV [2] was “does not increase the cells viability”. Further, in the series on WNV [2], the “Cell viability, addition at 1, 2, 4 or 8 hours post-infection” value was “not more able to protect BHK-21 cells; also recorded: not more able to significantly increase the cell viability”. For the same compound, the “WNV adsorption (virus titre)” value in the series on WNV [3] is reported as “doesn’t reduce the virus titre”. The “Virucidal activity (WNV infectivity)” value is on record as “failed to affect the WNV infectivity” with WNV [4] and “doesn’t affect the WNV infectivity” in the series with WNV [4] (listed as melianone). Besides, the “Reduction of WNV titre (yield reduction)” value in the series on WNV [5] is “a reduction of virus titre was observed”; in the series with WNV [5] (listed as melianone), “Reduction of WNV titre”. Also, the CC50 with Vero-76 cells is 51 µM; in the series with MT-4 cells, more than 100 µM; in the series with MDBK cells, 16 µM; in the series with BHK-21 cells, 50 µM. The “Cytotoxicity towards A549” value in series [8] was “exhibit cytotoxicity”. In series [9], this compound displayed an MIC of more than 136 µM. In addition, the “Cytopathic effects on BHK-21 monolayers” value with BHK-21 cells is recorded as “did not show significant cytopathic effects”.

Take `COC(=O)[C@H](CCC=C(C)C)[C@@H]1[C@@H](O)C[C@]2(C)C3=CC[C@H]4C(C)(C)C(=O)CC[C@]4(C)[C@H]3CC[C@@]12C` [Compound 2, methyl kulonate]: the EC50 is more than 100 µM with YFV (setting [15]); more than 35 µM with HIV-1 IIIB (setting [17]); more than 100 µM with Reo-1 (setting [18]); more than 100 µM with HSV-1 (setting [14]); more than 85 µM with BVDV (setting [19]). Also, the CC50 in “in vitro [11]” is 35 µM; in “in vitro [12]” it was 85 µM; in “in vitro [13]”, more than 100 µM; in “in vitro [1]”, 100 µM. Further, the “Cytotoxicity towards A549” value in series [8] is “exhibit cytotoxicity”. The same compound gave an MIC in series [9] (setting [16]) of 70 µM (≈ 33.9 µg/mL).

Turning to `C/C=C(\C)C(=O)O[C@@H]1CC[C@]2(C)[C@H]3CC[C@@]4(C)[C@@H]([C@@H]5C[C@H]([C@@H]6OC6(C)C)O[C@H]5O)CC[C@]4(C)C3=CC[C@H]2C1(C)C` [Compound 4, 3-α-tigloyl-melianol], the EC50 in the series with YFV (read-out: EC50 YFV) was 7 µM; in series [6], 3 to 11 µM; with WNV [7] (read-out: EC50 WNV), 3 µM; in the series on HIV-1 IIIB (read-out: EC50 HIV-1IIIB), more than 27 µM; in the series with DENV-2 (read-out: EC50 DENV-2), 3 µM; in the series with Reo-1 (read-out: EC50 Reo-1), more than 20 µM. The EC50 in the series on HSV-1 (read-out: EC50 HSV-1) was more than 100 µM; in the series on WNV [10] (read-out: EC50 WNV 2hrs p.i.), more than 20 µM; in the series with WNV [10] (read-out: EC50 WNV d. i.), 3.5 µM; in the series on BVDV, more than 37 µM. Further, the “Cell viability, addition during the infection” value in the series with WNV [2] is “increases the cell viability”. The “Cell viability, pretreatment” value in the series with WNV [2] is listed as “does not increase the cells viability”. For the same compound, in the series on WNV [2], the “Cell viability, addition at 1, 2, 4 or 8 hours post-infection” value is “not more able to protect BHK-21 cells; also recorded: not more able to significantly increase the cell viability”. Moreover, in the series with WNV [3], the “WNV adsorption (virus titre)” value is “doesn’t reduce the virus titre”. Besides, the “Virucidal activity (WNV infectivity)” value is “failed to affect the WNV infectivity” with WNV [4] and “doesn’t affect the WNV infectivity” in the series with WNV [4] (listed as 3-tigloyl-melianol). For the same compound, the “Reduction of WNV titre (yield reduction)” value in the series with WNV [5] is recorded as “a reduction of virus titre was observed”. For the same compound, the CC50 in the series with Vero-76 cells came to 100 µM; in the series on MT-4 cells it was 27 µM; in the series with MDBK cells, 37 µM; with BHK-21 cells, 20 µM. Moreover, in [8], the “Cytotoxicity towards A549” value is “exhibit cytotoxicity”. The same compound had an MIC in series [9] of 29 µM (≈ 16.1 µg/mL). The “Cytotoxicity against Vero cells” value in the series on Vero cells is more than 500 µM. In addition, the “Cytopathic effects on BHK-21 monolayers” value in the series with BHK-21 cells was “did not show significant cytopathic effects”.

With `O=C1Nc2ccc(Cl)cc2[C@@](C#CC2CC2)(C(F)(F)F)O1` [Efavirenz, reference compound], the CC50 in “in vitro [11]” was determined as 40 µM. Besides, the half-maximal effective concentration (EC50) with HIV-1 IIIB (setting [17]) was 0.002 µM.

Consider `NNC(=O)c1ccncc1` [Isoniazid, reference compound], for which, in [9] (setting [16]), the MIC was 0.45 µM (≈ 0.0617 µg/mL).

For `C[C@@]1(O)[C@H](O)[C@@H](CO)O[C@H]1n1cnc2c(=O)[nH]c(N)nc21` [2’-C-methyl-guanosine, reference compound], the EC50 in the series with YFV (setting [15]) came out at 1.4 µM; in the series with WNV [7] (West Nile virus, BHK-21, read-out: EC50 WNV) it was 1 µM; with DENV-2 (Dengue virus, DENV2, BHK-21, read-out: EC50 DENV-2) it was 1.4 µM; with Reo-1 (setting [18]), 1 µM; in the series with WNV [10] (West Nile virus, BHK-21, 2 h, read-out: EC50 WNV 2hrs p.i.), 1 µM; with WNV [10] (West Nile virus, BHK-21, read-out: EC50 WNV d. i.), 1 µM. Further, the EC50 with BVDV (setting [19]) came out at 2 µM. For the same compound, in the series on WNV [2], the “Cell viability, addition during the infection” value is on record as “increases the cell viability”. Moreover, the CC50 was more than 100 µM in the series “in vitro [12]” and 80 µM in “in vitro [13]”. Besides, the “Cytopathic effects on BHK-21 monolayers” value with BHK-21 cells was “did not show significant cytopathic effects”.

In the case of 21-β-acetoxy-melianone [Compound 3], the EC50 is more than 10 µM with YFV (read-out: EC50 YFV); more than 23 µM in the series with HIV-1 IIIB (read-out: EC50 HIV-1IIIB); more than 10 µM with Reo-1 (read-out: EC50 Reo-1); more than 36 µM with HSV-1 (read-out: EC50 HSV-1); more than 22 µM with BVDV. Further, the CC50 in the series with Vero-76 cells worked out at 36 µM; in the series on MT-4 cells it was 23 µM; with MDBK cells, 22 µM; in the series on BHK-21 cells, 10 µM. Further, the “Cytotoxicity towards A549” value in series [8] is “exhibit cytotoxicity”. In addition, the MIC in the series on M. tuberculosis was 16 µg/mL.
